According to patent US20250340560A1, “SUBSTITUTED PYRAZOLO[1,5-a]PYRIMIDINES AS BRUTON'S TYROSINE KINASE MODULATORS” (BEIGENE SWITZERLAND GMBH, priority 2013, published 2025):
Where a name gives a salt, the structure may show the parent alone.

These compounds were tested against Recombinant Btk (Homo sapiens (Human), UniProt Q06187) (assay: BTK kinase assay (TR-FRET)). Conditions: read-out: IC50 (nM) Btk; 1 hour pre-incubation, ATP at Km.
Recombinant Btk, sequence (Q06187 whole entry): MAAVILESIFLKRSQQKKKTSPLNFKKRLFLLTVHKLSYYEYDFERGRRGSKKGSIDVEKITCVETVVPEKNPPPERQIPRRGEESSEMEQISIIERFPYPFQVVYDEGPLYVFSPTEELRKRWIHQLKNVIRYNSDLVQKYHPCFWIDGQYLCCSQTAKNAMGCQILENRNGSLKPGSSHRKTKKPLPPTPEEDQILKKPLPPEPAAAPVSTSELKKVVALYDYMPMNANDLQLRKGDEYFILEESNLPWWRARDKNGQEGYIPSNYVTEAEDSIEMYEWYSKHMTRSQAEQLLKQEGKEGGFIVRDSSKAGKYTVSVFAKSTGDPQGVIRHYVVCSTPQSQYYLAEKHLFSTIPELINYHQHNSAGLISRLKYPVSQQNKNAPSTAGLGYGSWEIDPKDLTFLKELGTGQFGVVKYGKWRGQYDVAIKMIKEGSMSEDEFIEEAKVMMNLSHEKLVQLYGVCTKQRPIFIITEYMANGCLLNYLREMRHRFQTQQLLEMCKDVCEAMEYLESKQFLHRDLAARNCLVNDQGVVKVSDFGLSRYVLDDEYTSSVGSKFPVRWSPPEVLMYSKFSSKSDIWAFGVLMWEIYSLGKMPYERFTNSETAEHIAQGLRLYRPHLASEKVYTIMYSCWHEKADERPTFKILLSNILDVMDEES

In order of falling IC50:
1. C=CC(=O)N1CC(C2CCNc3c(C(N)=O)c(-c4ccc(Oc5ccccc5)c(OC)c4)nn32)C1 (centres unmarked) [Compound 140, 7-(1-acryloylazetidin-3-yl)-2-(3-methoxy-4-phenoxyphenyl)-4,5,6,7-tetrahydropyrazolo[1,5-a]pyrimidine-3-carboxamide formate]  3000 nM
2. C=CC(=O)N1CCC(C2CCNc3c(C(N)=O)c(-c4ccccc4)nn32)CC1 (centres unmarked) [Compound 144, 7-(1-acryloylpiperidin-4-yl)-2-phenyl-4,5,6,7-tetrahydropyrazolo[1,5-a]pyrimidine-3-carboxamide trifluoroacetate]  140 nM
3. C=CC(=O)N1CC(C2CCNc3c(C(N)=O)c(-c4ccc(Cl)cc4)nn32)C1 (centres unmarked) [Compound 145, 7-(1-acryloylazetidin-3-yl)-2-(4-chlorophenyl)-4,5,6,7-tetrahydropyrazolo[1,5-a]pyrimidine-3-carboxamide]  72 nM
4. C=CC(=O)NCC1CCNc2c(C(N)=O)c(-c3ccc(OCc4ccccc4)c(OC)c3)nn21 (centres unmarked) [Compound 142, 7-(acrylamidomethyl)-2-(4-(benzyloxy)-3-methoxyphenyl)-4,5,6,7-tetrahydropyrazolo[1,5-a]pyrimidine-3-carboxamide]  54 nM
5. CC#CC(=O)N1CCC(C2CCNc3c(C(N)=O)c(-c4ccc(Oc5ccc(F)cc5F)cc4)nn32)CC1 (centres unmarked) [Compound 179, 7-(1-(But-2-ynoyl)piperidin-4-yl)-2-(4-(2,4-difluorophenoxy)phenyl)-4,5,6,7-tetrahydropyrazolo[1,5-a]pyrimidine-3-carboxamide]  48 nM
6. C=CC(=O)Nc1ccccc1C1CCNc2c(C(N)=O)c(-c3ccc(Cl)c(C(F)(F)F)c3)nn21 (centres unmarked) [Compound 163, 7-(2-Acrylamidophenyl)-2-(4-chloro-3-(trifluoromethyl)phenyl)-4,5,6,7-tetrahydropyrazolo[1,5-a]pyrimidine-3-carboxamide]  7.3 nM
7. C=CC(=O)N1CC(C2CCNc3c(C(N)=O)c(-c4ccc(OCCc5ccccc5)cc4)nn32)C1 (centres unmarked) [Compound 141, 7-(1-acryloylazetidin-3-yl)-2-(4-phenethoxyphenyl)-4,5,6,7-tetrahydropyrazolo[1,5-a]pyrimidine-3-carboxamide]  7 nM
8. NC(=O)c1c(-c2ccc(F)c(Cl)c2)nn2c1NCCC2c1ccccc1NC(=O)/C=C/CN1CCCCC1 (centres unmarked) [Compound 153, (E)-2-(3-Chloro-4-fluorophenyl)-7-(2-(4-(piperidin-1-yl)but-2-enamido)phenyl)-4,5,6,7-tetrahydropyrazolo[1,5-a]pyrimidine-3-carboxamide]  6.1 nM
9. NC(=O)c1c(-c2ccc(Oc3ccccc3)cc2)nn2c1NCC[C@H]2C1CCN(C(=O)CCCl)CC1 [Compound 177, (S)-7-(1-(3-chloropropanoyl)piperidin-4-yl)-2-(4-phenoxyphenyl)-4,5,6,7-tetrahydropyrazolo[1,5-a]pyrimidine-3-carboxamide]  5.7 nM
10. C=CC(=O)Nc1cc(C)ccc1C1CCNc2c(C(N)=O)c(-c3ccc(OCC4CC4)cc3)nn21 (centres unmarked) [Compound 148, 7-(2-Acrylamido-4-methylphenyl)-2-(4-(cyclopropylmethoxy)phenyl)-4,5,6,7-tetrahydropyrazolo[1,5-a]pyrimidine-3-carboxamide]  5.6 nM
11. C=CC(=O)N1CCC(C2CCNc3c(C(N)=O)c(-c4ccc(C)c(OC)c4)nn32)CC1 (centres unmarked) [Compound 174, 7-(1-Acryloylpiperidin-4-yl)-2-(3-methoxy-4-methylphenyl)-4,5,6,7-tetrahydropyrazolo[1,5-a]pyrimidine-3-carboxamide]  4.8 nM
12. C=CC(=O)Nc1ccccc1C1CCNc2c(C(N)=O)c(-c3ccccc3)nn21 (centres unmarked) [Compound 150, 7-(2-Acrylamidophenyl)-2-phenyl-4,5,6,7-tetrahydropyrazolo[1,5-a]pyrimidine-3-carboxamide]  4.7 nM
13. NC(=O)c1c(-c2ccc(Oc3ccccc3)cc2)nn2c1NCCC2C1CCN(C(=O)/C=C/CN2CCCCC2)CC1 (centres unmarked) [Compound 170, (E)-2-(4-Phenoxyphenyl)-7-(1-(4-(piperidin-1-yl)but-2-enoyl)piperidin-4-yl)-4,5,6,7-tetrahydropyrazolo[1,5-a]pyrimidine-3-carboxamide]  3.8 nM
14. C=CC(=O)Nc1ccccc1C1CCNc2c(C(N)=O)c(-c3ccc(OC)c(OC)c3)nn21 (centres unmarked) [Compound 168, 7-(2-Acrylamidophenyl)-2-(3,4-dimethoxyphenyl)-4,5,6,7-tetrahydropyrazolo[1,5-a]pyrimidine-3-carboxamide]  3.2 nM
15. C=CC(=O)Nc1ccccc1C1CCNc2c(C(N)=O)c(-c3cc(F)c(F)c(Cl)c3)nn21 (centres unmarked) [Compound 158, 7-(2-Acrylamidophenyl)-2-(3-chloro-4.5-difluorophenyl)-4,5,6,7-tetrahydropyrazolo[1,5-a]pyrimidine-3-carboxamide]  2.9 nM
16. C=CC(=O)Nc1cc(Cl)ccc1C1CCNc2c(C(N)=O)c(-c3ccc(OCC4CC4)cc3)nn21 (centres unmarked) [Compound 147, 7-(2-Acrylamido-4-chlorophenyl)-2-(4-(cyclopropylmethoxy)phenyl)-4,5,6,7-tetrahydropyrazolo[1,5-a]pyrimidine-3-carboxamide]  2.7 nM
17. C=CC(=O)Nc1ccccc1C1CCNc2c(C(N)=O)c(-c3cccc(OC)c3)nn21 (centres unmarked) [Compound 166, 7-(2-Acrylamidophenyl)-2-(3-methoxyphenyl)-4,5,6,7-tetrahydropyrazolo[1,5-a]pyrimidine-3-carboxamide]  2.7 nM
18. C=CC(=O)Nc1ccccc1C1CCNc2c(C(N)=O)c(-c3cc(OC)c(OC)c(OC)c3)nn21 (centres unmarked) [Compound 167, 7-(2-Acrylamidophenyl)-2-(3,4,5-trimethoxyphenyl)-4,5,6,7-tetrahydropyrazolo[1,5-a]pyrimidine-3-carboxamide]  2.4 nM
19. C=CC(=O)Nc1ccccc1C1CCNc2c(C(N)=O)c(-c3ccc(C(F)(F)F)c(Cl)c3)nn21 (centres unmarked) [Compound 162, 7-(2-Acrylamidophenyl)-2-(3-chloro-4-(trifluoromethyl)phenyl)-4,5,6,7-tetrahydropyrazolo[1,5-a]pyrimidine-3-carboxamide]  2.1 nM
20. COc1cc(-c2nn3c(c2C(N)=O)NCCC3c2ccccc2NC(=O)/C=C/CN(C)C)ccc1C (centres unmarked) [Compound 165, (E)-7-(2-(4-(Dimethylamino)but-2-enamido)phenyl)-2-(3-methoxy-4-methylphenyl)-4,5,6,7-tetrahydropyrazolo[1,5-a]pyrimidine-3-carboxamide]  1.6 nM
21. C=CC(=O)Nc1ccccc1C1CCNc2c(C(N)=O)c(-c3ccc(OCc4ccccn4)c(Cl)c3)nn21 (centres unmarked) [Compound 146, 7-(2-Acrylamidophenyl)-2-(3-chloro-4-(pyridin-2-ylmethoxy)phenyl)-4,5,6,7-tetrahydropyrazolo[1,5-a]pyrimidine-3-carboxamide]  1.3 nM
22. C=CC(=O)Nc1ccccc1C1CCNc2c(C(N)=O)c(-c3ccc(F)c(Br)c3)nn21 (centres unmarked) [Compound 152, 7-(2-Acrylamidophenyl)-2-(3-bromo-4-fluorophenyl)-4,5,6,7-tetrahydropyrazolo[1,5-a]pyrimidine-3-carboxamide]  1.2 nM
23. C=CC(=O)Nc1ccccc1C1CCNc2c(C(N)=O)c(-c3ccc(Cl)c(F)c3)nn21 (centres unmarked) [Compound 154, 7-(2-Acrylamidophenyl)-2-(4-chloro-3-fluorophenyl)-4,5,6,7-tetrahydropyrazolo[1,5-a]pyrimidine-3-carboxamide]  1.2 nM
24. C=CC(=O)N1CC(C2(C)CCNc3c(C(N)=O)c(-c4ccc(Oc5ccccc5)cc4)nn32)C1 (centres unmarked) [Compound 175, 7-(1-Acryloylazetidin-3-yl)-7-methyl-2-(4-phenoxyphenyl)-4,5,6,7-tetrahydropyrazolo[1,5-a]pyrimidine-3-carboxamide]  1.2 nM
25. C=CC(=O)N1CCC(C2(C)CCNc3c(C(N)=O)c(-c4ccc(Oc5ccccc5)cc4)nn32)CC1 (centres unmarked) [Compound 138, 7-(1-acryloylpiperidin-4-yl)-7-methyl-2-(4-phenoxyphenyl)-4,5,6,7-tetrahydropyrazolo[1,5-a]pyrimidine-3-carboxamide]  1 nM
26. C=CC(=O)Nc1ccccc1C1CCNc2c(C(N)=O)c(-c3cccc(Cl)c3)nn21 (centres unmarked) [Compound 155, 7-(2-Acrylamidophenyl)-2-(3-chlorophenyl)-4,5,6,7-tetrahydropyrazolo[1,5-a]pyrimidine-3-carboxamide]  0.96 nM
27. C=CC(=O)NCC1(C)CCNc2c(C(N)=O)c(-c3ccc(Oc4ccccc4)cc3)nn21 (centres unmarked) [Compound 143, 7-(acrylamidomethyl)-7-methyl-2-(4-phenoxyphenyl)-4,5,6,7-tetrahydropyrazolo[1,5-a]pyrimidine-3-carboxamide]  0.89 nM
28. C=CC(=O)Nc1ccccc1C1CCNc2c(C(N)=O)c(-c3ccc(Cl)c(Cl)c3)nn21 (centres unmarked) [Compound 156, 7-(2-Acrylamidophenyl)-2-(3,4-dichlorophenyl)-4,5,6,7-tetrahydropyrazolo[1,5-a]pyrimidine-3-carboxamide]  0.55 nM
29. C=CC(=O)Nc1ccccc1C1CCNc2c(C(N)=O)c(-c3ccc(Cl)c(OC)c3)nn21 (centres unmarked) [Compound 160, 7-(2-Acrylamidophenyl)-2-(4-chloro-3-methoxyphenyl)-4,5,6,7-tetrahydropyrazolo[1,5-a]pyrimidine-3-carboxamide]  0.49 nM
30. C=CC(=O)N1CC(C2CCNc3c(C(N)=O)c(-c4ccc(Oc5ccccc5)c(Cl)c4)nn32)C1 (centres unmarked) [Compound 139, 7-(1-acryloylazetidin-3-yl)-2-(3-chloro-4-phenoxyphenyl)-4,5,6,7-tetrahydropyrazolo[1,5-a]pyrimidine-3-carboxamide]  0.44 nM
31. C=CC(=O)Nc1ccccc1C1CCNc2c(C(N)=O)c(-c3ccc(F)c(C)c3)nn21 (centres unmarked) [Compound 157, 7-(2-Acrylamidophenyl)-2-(4-fluoro-3-methylphenyl)-4,5,6,7-tetrahydropyrazolo[1,5-a]pyrimidine-3-carboxamide]  0.38 nM
32. C=CC(=O)Nc1ccccc1C1CCNc2c(C(N)=O)c(-c3cc(Cl)c(OC)c(Cl)c3)nn21 (centres unmarked) [Compound 169, 7-(2-Acrylamidophenyl)-2-(3,5-dichloro-4-methoxyphenyl)-4,5,6,7-tetrahydropyrazolo[1,5-a]pyrimidine-3-carboxamide]  0.15 nM
